Results reported in US5316929A, “Process for the preparation of MA” (Hoechst Aktiengesellschaft, priority 1991, dated 1994).
“Also recorded” adds a separate entry of the source.

tested on: moenomycinase; assay: Moenomycinase activity (cleavage of moenomycin A, TLC/UV analysis); type: biochemical, Bacillus sp. DSM 4675; settings: EDTA 10 mM in FIG. 1
Description: Partially purified moenomycinase was dialyzed for 24 hours. The dialyzed moenomycinase was incubated with moenomycin A (6 mg/ml) in 100 mM potassium phosphate buffer, pH 8.0, for 31 hours with the addition of metal ions (0.5 or 1.0 mM, except K^+ =20 mM0 or EDTA (10 mM). Enzyme activity was measured by determining the amount of MC formed using TLC and UV analysis as described in Example 3. The TLC plates were scanned at a wavelength of 254 nm using a DESAGA Chromatogram Densitometer CD50. Enzyme activity is expressed relative to the activity of the dialyzed preparation ("Dial").
FIG. 2. Activation of Moenomycinase by Cobalt. Purified moenomycinase was incubated with moenomycin A in the presence of the indicated concentrations of Co^++. Enzyme activity was measured by determining the amount of MB formed using TLC and UV analysis as described in FIG. 1.
The molecular weight of moenomycinase is 230,000±10,000 Dalton. Moenomycinase has an optical pH of 8.0 to 8.5 and an optimal temperature of 45° to 55° C. Moenomycinase has a Km value of 4 to 10 mmolar based on moenomycin A as substrate.

**Q.** For `CC(=O)OCC1=C(C(=O)O)N2C(=O)[C@@H](N)[C@H]2SC1` [7-aminocephalosporin acid (7-ACA), 7-aminocephalosporin acid], which Inhibition of moenomycinase is on record?
**A.** The Inhibition of moenomycinase was “inhibited”.

**Q.** For `CC(=O)OCC1=C(C(=O)O)N2C(=O)[C@@H](NC(=O)CCC[C@@H](N)C(=O)O)[C@H]2SC1` [Cephalosporin C], which Inhibition of moenomycinase is on record?
**A.** Its Inhibition of moenomycinase is “inhibited”.

**Q.** With `O=C(O)CN(CCN(CC(=O)O)CC(=O)O)CC(=O)O` [EDTA] as the compound, how does the Inhibition of moenomycinase read?
**A.** The Inhibition of moenomycinase was “inhibited”.

**Q.** Which Inhibition of moenomycinase does the source give for `C=O` [formalin] here?
**A.** Its Inhibition of moenomycinase is “inhibited”.

same assay, conditions: metal ions 0.05-1.0 mM

**Q.** With `[Ca+2]` [Ca^++] as the compound, how does the Activation of moenomycinase read?
**A.** Its Activation of moenomycinase is “activated”.

**Q.** With `[Co+2]` [Co^++] as the compound, how does the Activation of moenomycinase read?
**A.** The Activation of moenomycinase was “activated”.

**Q.** Which Activation of moenomycinase does the source give for `[Mg+2]` [Mg^++] here?
**A.** The Activation of moenomycinase was “activated”.

**Q.** Which Activation of moenomycinase does the source give for `[Ni+2]` [Ni^++] here?
**A.** The Activation of moenomycinase was “activated; also recorded: greatest activation”.

tested on: biosynthesis of the peptidoglycan framework of the bacterial cell wall; assay: not given; settings: cited from earlier work

**Q.** Which “Inhibition of the biosynthesis of the peptidoglycan framework of the bacterial cell wall” value does the source give for `C=C(C/C=C(\C)CCC=C(C)C)CCC(C)(C)/C=C/CC/C(C)=C/CO[C@@H](COP(=O)(O)O[C@H]1O[C@H](C(N)=O)[C@@](C)(O)[C@H](OC(N)=O)[C@H]1O[C@@H]1O[C@H](CO[C@@H]2O[C@H](CO)[C@@H](O)[C@H](O)[C@H]2O)[C@@H](O[C@@H]2O[C@H](C)[C@@H](O[C@@H]3O[C@H](C(=O)NC4=C(O)CCC4=O)[C@H](O)[C@H](O)[C@H]3O)[C@H](O)[C@H]2NC(C)=O)[C@H](O)[C@H]1NC(C)=O)C(=O)O` [Moenomycin A] here?
**A.** Its value is “inhibits”.
